Consider 7 compounds from ChEMBL document CHEMBL1201862, “PubChem BioAssay data set” (2004).

Holding throughout (experiment): DTP human tumour cell line panel, 48 h
Experiment [1] deals with SK-MEL-28.
Experiment [2] relates to HOP-62.
Experiment [3] relates to TK-10.
In experiment [4] the test system is ACHN.
Experiment [5] concerns NCI-H522.
Experiment [6] relates to SW-620.
In experiment [7] the test system is MDA-N.
Experiment [8] relates to DU-145.
Experiment [9] has as its system HOP-92.
In experiment [10] the test system is UO-31.
Experiment [11] relates to NCI/ADR-RES.
Experiment [12] has as its system LOX IMVI.
The subject of experiment [13] is HL-60.
The subject of experiment [14] is COLO 205.
Experiment [15] relates to M14.
For experiment [16], the system named is SR.
Experiment [17] deals with OVCAR-5.
For experiment [18], the system named is MOLT-4.
The test system of experiment [19] is NCI-H460.
The test system of experiment [20] is UACC-62.

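These data come from cells grown in 96-well plates and exposed to compound for 48 hours at five concentrations. GI50 marks 50% less growth.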 The source made the active and inactive calls. Cut-off read from the data, not from the text of the source: active = GI50 up to about 1.1 µM and inactive = higher.

Broadly, the GI50 is the concentration that inhibits growth by half. Turning to `CO[C@@H]1C[C@H]2[C@@H]3CC[C@H]([C@H](C)COC(C)=O)[C@@]3(C)CC[C@@H]2[C@@]2(C)CC[C@H]3C[C@]312`, the GI50 in experiment [1], in experiment [2], in experiment [3], in experiment [4], in experiment [5] and in [6] was > 100 µM (inactive) in each case. Moreover, the GI50 in experiment [7] was > 100 µM (inactive); in experiment [8], > 100 µM (inactive); in [9], 73.5 µM (inactive); in experiment [10], > 100 µM (inactive); in experiment [11], > 100 µM (inactive); in experiment [12], > 100 µM (inactive). Further, the GI50 was > 100 µM (inactive) in experiment [13]; 34 µM (inactive) in experiment [14]; > 100 µM (inactive) in experiment [15]; > 100 µM (inactive) in experiment [16]; > 100 µM (inactive) in experiment [17]; > 100 µM (inactive) in experiment [18]. Further, the GI50 in [19] is > 100 µM (inactive).

With `CCCCc1ccc(Nc2nc3c(ncn3COCCBr)c(=O)[nH]2)cc1`, the GI50 in [2], in [3], in [4], in [5], in experiment [6] and in experiment [7] was > 100 µM (inactive) in each case. In addition, the GI50 in [8], in [9], in [10], in experiment [11], in [12] and in experiment [13] was > 100 µM (inactive) each time. Also, the GI50 in experiment [14] is > 100 µM (inactive); in experiment [15] it was > 100 µM (inactive); in experiment [20], > 100 µM (inactive); in experiment [16] it was 86.3 µM (inactive); in experiment [17], > 100 µM (inactive); in [18], > 100 µM (inactive). Also, in [19], the GI50 was > 100 µM (inactive).

For `NS(=O)(=O)c1ccc(/N=N/c2ncccc2O)cc1`, the GI50 in experiment [1] is > 100 µM (inactive); in experiment [2], > 100 µM (inactive); in experiment [3], > 100 µM (inactive); in experiment [4] it was > 100 µM (inactive); in experiment [5], 44.9 µM (inactive); in [6], 57.3 µM (inactive). Besides, the GI50 is > 100 µM (inactive) in [7]; 38.5 µM (inactive) in [8]; > 100 µM (inactive) in experiment [9]; > 100 µM (inactive) in experiment [10]; > 100 µM (inactive) in [11]; 77.4 µM (inactive) in [12]. The GI50 is 41.1 µM (inactive) in [13]; > 100 µM (inactive) in experiment [14]; > 100 µM (inactive) in [15]; > 100 µM (inactive) in experiment [20]; 23.1 µM (inactive) in experiment [16]; > 100 µM (inactive) in experiment [17]. For the same compound, the figures for the GI50 in experiment [18] and in experiment [19] were 22.6 µM (inactive) and 69.3 µM (inactive), respectively.

Consider `C=C(C)C1CCC2=CC(CC3(C)OC3C3=CC(C(=O)OC)=C(C1)O3)OC2=O` (configuration not stated), for which the GI50 in [1] is > 100 µM (inactive); in [2], > 100 µM (inactive); in experiment [3], > 100 µM (inactive); in [4], > 100 µM (inactive); in experiment [5], 85.9 µM (inactive); in experiment [6] it was > 100 µM (inactive). The GI50 in experiment [7] was > 100 µM (inactive); in [8], > 100 µM (inactive); in experiment [9], 88.3 µM (inactive); in [10] it was > 100 µM (inactive); in experiment [11] it was > 100 µM (inactive); in [12] it was > 100 µM (inactive). Further, the GI50 in experiment [13] was > 10 µM (inactive); in experiment [15], > 100 µM (inactive); in [16] it was 83.2 µM (inactive); in experiment [17] it was > 100 µM (inactive); in experiment [18], 36.9 µM (inactive); in experiment [19], > 100 µM (inactive).

As to `CN/C(=N\c1ccc(OC)c2ccccc12)SC`, the GI50 in experiment [1], in experiment [2], in experiment [3], in experiment [4], in [5] and in experiment [6] was > 10 µM (inactive) in each case. The GI50 in experiment [7], in experiment [8], in [9], in [11], in [12] and in experiment [13] was > 10 µM (inactive) throughout. Besides, the GI50 in [14] was > 10 µM (inactive); in [15] it was > 10 µM (inactive); in experiment [20] it was > 10 µM (inactive); in experiment [16], > 10 µM (inactive); in experiment [17] it was 2.86 µM (inactive); in [18], > 10 µM (inactive).

In the case of `O=C/C=C/c1ccco1`, the GI50 in experiment [1], in [2], in experiment [3], in experiment [4], in [5] and in experiment [6] was > 100 µM (inactive) throughout. The GI50 in experiment [7], in experiment [8], in experiment [9], in experiment [10], in experiment [11] and in experiment [12] was > 100 µM (inactive) throughout. Further, the GI50 in experiment [13] is 5.56 µM (inactive); in experiment [14], > 100 µM (inactive); in experiment [15], > 100 µM (inactive); in experiment [20], > 100 µM (inactive); in experiment [16], 31.3 µM (inactive); in experiment [17] it was > 100 µM (inactive). Besides, the GI50 in [18] was > 100 µM (inactive).

On to `C=CC(C)(C)n1cc(C2=C(O)C(=O)C(c3c(CC=C(C)C)[nH]c4ccccc34)=C(O)C2=O)c2ccccc21`, for which the 50% growth inhibitory concentration (GI50) in experiment [1] is 0.575 µM (active); in [2] it was 1.25 µM (inactive); in experiment [4], 1.56 µM (inactive); in experiment [5], 2.3 µM (inactive); in [6], 3.43 µM (inactive); in [7], 0.718 µM (active). Further, the GI50 in [8] is 1.55 µM (inactive); in experiment [9], 1.46 µM (inactive); in [10], 0.67 µM (active); in [11] it was 2.47 µM (inactive); in experiment [12], 0.998 µM (active); in [13], 1.86 µM (inactive). The GI50 in experiment [14] was 1.71 µM (inactive); in [15] it was 1.34 µM (inactive); in experiment [20], 0.34 µM (active); in [16], 0.745 µM (active); in [17], 2.89 µM (inactive); in experiment [18], 1.6 µM (inactive). Besides, the GI50 in [19] is 1.52 µM (inactive).
